Results from patent US20060018827A1, “Positron therapy of inflammation, infection and disease” (priority 2004, published 2006).

Assays:
[1] = Human Maximum Tolerated Dose (MTD) of ^18F-FDG, organ dosimetry calculation; details: for 5 Ci FDG Organ dose / 7.5 Ci FDG Organ dose / MTD FDG (calculated MTD of ^18F-FDG for the organ): 70 Kg person
Experimental: The dose-limiting organ for therapy with ^18F-FDG is the bone marrow. The activity of ^18F-FDG that will deliver doses of 200 rad to the red marrow (less than 5% damage in 5 years) (Early and Sodee, 1995) and also 300 rad were calculated using the Medical Internal Radionuclide Dosimetry formalism. A dose of 300 rad was considered because it causes acceptable and manageable hematologic toxicity in selected patients (Early and Sodee, 1995). The subsequent doses delivered to ^18F-FDG-avid tumors were calculated.
Human Maximum Tolerated Dose (MTD) of ^18F-FDG. Table 1 indicates the radiation dose (Column 2) to each organ (Column 1) from 1mCi of ^18F-FDG for a 70 Kg person. The tolerated radiation dose of each organ (5% complications in 5 years) is described in Table 1, Column 3. The MTD of ^18F-FDG for each organ is described in Table 1, Column 4. The smallest value in this column is 4.88 Ci, which is the MTD of ^18F-FDG for a 70 Kg person, delivering 200 cGy to the ovaries. This is the critical organ for female patients; however, female patients with metastatic cancer have usually undergone chemotherapy causing ovarian failure or may choose to accept ovarian failure as a side effect of therapy. If ovarian function is not a consideration, then the critical organ is the bone marrow for both male and female patients. A dose of 5.00 Ci of ^18F-FDG would deliver 200 cGy to the bone marrow of a 70 Kg person.

metastatic cancers = assay: FDG-PET SUVmax in patients with different types of metastatic cancer; assay type: in vivo, human
Experimental: ^18F-FDG-PET in breast cancer patients with metastatic disease. Approval was obtained from the Albert Einstein College of Medicine Cancer Center Protocol Review Committee and the Montefiore Medical Center Institutional Review Board. Retrospectively, five consecutive patients with breast cancer and metastatic disease shown on ^18F-FDG-PET scanning were evaluated. After more than 4 hours of fasting, the patients were administered 3.5 mCi of ^18F-FDG, and rested during an uptake period of 45 minutes. The patients then underwent a whole-body scan on the CPET scanner. The scanning protocol consisted of 6 minutes of emission and two rotations of a ^137Cs source for transmission per bed position, and approximately six bed positions. Images were corrected for attenuation and reconstructed with the iterative method. To reduce volume averaging, a small round region of interest 12 pixels in size was drawn in the center of the tumor and in the center of normal liver. The diameter of the region was 14 mm. Standardized uptake values (SUVs) were calculated for all regions of interest by the formula SUV=(activity in tissue [mCi/g]) divided by (injected activity [mCi]/body weight [g]). The tumor to liver ratios (TLRS) were calculated by the formula TLR=SUV of tumor divided by SUV of liver.
Human Tumor Dosimetry. For each patient, the tumor with the highest SUVmax was used, and corresponding calculated tumor dose (TD) for metastatic cancers are shown in Columns 4 and 5 in Table 3. Tumor dose is calculated by the formulae: D(cGy)=100*SUV, for a dose of 5 Ci HD ^18F-FDG; and D(cGy)=150*SUV, for a dose of 7.5 Ci HD ^18F-FDG.

For `O=C[C@H]([18F])[C@@H](O)[C@H](O)[C@H](O)CO` [^18F-FDG, ^18F-2-deoxy-2-fluoro-D-glucose], the “5 Ci FDG Organ dose” value ([1]; Bone marrow) was 200 cGy, the “7.5 Ci FDG Organ dose” value ([1]; Bone marrow) was 300 cGy and the “5 Ci FDG Organ dose” value ([1]; Brain) was 850 cGy. The “7.5 Ci FDG Organ dose” value ([1]; Brain) was 1275 cGy, the “MTD FDG (calculated MTD of ^18F-FDG for the organ)” value ([1]; Brain, organ MTD 4500 cGy (5% complications in 5 years)) was 26.47 Ci and the “5 Ci FDG Organ dose” value ([1]; Heart wall) was 1250 cGy. The “7.5 Ci FDG Organ dose” value ([1]; Heart wall) was 1875 cGy, the “MTD FDG (calculated MTD of ^18F-FDG for the organ)” value ([1]; Heart wall, organ MTD 4000 cGy (5% complications in 5 years)) was 16.00 Ci and the “5 Ci FDG Organ dose” value ([1]; Kidneys) was 390 cGy. The “7.5 Ci FDG Organ dose” value ([1]; Kidneys) was 585 cGy, the “MTD FDG (calculated MTD of ^18F-FDG for the organ)” value ([1]; Kidneys, organ MTD 2300 cGy (5% complications in 5 years)) was 29.49 Ci and the “5 Ci FDG Organ dose” value ([1]; Liver) was 440 cGy. For the same compound, the “7.5 Ci FDG Organ dose” value ([1]; Liver) was 660 cGy, the “MTD FDG (calculated MTD of ^18F-FDG for the organ)” value ([1]; Liver, organ MTD 3000 cGy (5% complications in 5 years)) was 34.09 Ci and the “5 Ci FDG Organ dose” value ([1]; Lungs) was 280 cGy. For the same compound, the “7.5 Ci FDG Organ dose” value ([1]; Lungs) was 420 cGy, the “MTD FDG (calculated MTD of ^18F-FDG for the organ)” value ([1]; Lungs, organ MTD 6500 cGy (5% complications in 5 years)) was 116.07 Ci and the “5 Ci FDG Organ dose” value ([1]; Ovaries) was 205 cGy. For the same compound, the “7.5 Ci FDG Organ dose” value ([1]; Ovaries) was 308 cGy, the “MTD FDG (calculated MTD of ^18F-FDG for the organ)” value ([1]; Ovaries, organ MTD 200 cGy (5% complications in 5 years)) was 4.88 Ci and the “5 Ci FDG Organ dose” value ([1]; Testes) was 205 cGy. For the same compound, the “7.5 Ci FDG Organ dose” value ([1]; Testes) was 308 cGy, the “MTD FDG (calculated MTD of ^18F-FDG for the organ)” value ([1]; Testes, organ MTD 500 cGy (5% complications in 5 years)) was 12.20 Ci and the “5 Ci FDG Organ dose” value ([1]; Urinary bladder) was 1350 cGy. The “7.5 Ci FDG Organ dose” value ([1]; Urinary bladder) was 2025 cGy, the “MTD FDG (calculated MTD of ^18F-FDG for the organ)” value ([1]; Urinary bladder, organ MTD 6500 cGy (5% complications in 5 years)) was 24.07 Ci and the “dose to the brain” value ([1]; administered dose of 7.50 Ci) was 1275 rad. For the same compound, the “SUVmax Median” value (metastatic cancers; metastatic Anaplastic Thyroid cancer, 3 patients) was 17.4, the “SUVmax Median” value (metastatic cancers; metastatic Breast cancer, 10 patients) was 7.2 and the “SUVmax Median” value (metastatic cancers; metastatic Cervical cancer, 4 patients) was 7.0. The “SUVmax Median” value (metastatic cancers; metastatic Esophageal cancer, 5 patients) was 11.1, the “SUVmax Median” value (metastatic cancers; metastatic Head & Neck cancer, 9 patients) was 6.6 and the “SUVmax Median” value (metastatic cancers; metastatic Lung cancer, 10 patients) was 5.9. For the same compound, the “SUVmax Median” value (metastatic cancers; metastatic Lymphoma, 9 patients) was 5.6, the “SUVmax Median” value (metastatic cancers; metastatic Melanoma, 7 patients) was 9.0 and the “SUVmax Median” value (metastatic cancers; metastatic Ovarian cancer, 9 patients) was 5.3. The “maximum SUV” value (metastatic cancers; patient with metastatic esophageal cancer, abdominal metastasis) was 33 and the “maximum SUV” value (metastatic cancers; patient with metastatic non-small cell lung cancer, right mediastinum) was 14.8.
